Source: patent US8129417B2, “Substituted octahydrocyclopenta[C]pyrrol-4-amines as calcium channel blockers” (Abbott Laboratories, priority 2008, dated 2012)

Molecular target: human Cav2.2 (Homo sapiens, UniProt Q00975)
Assay: Assessment of calcium channel activity using FLIPR (Ca2+ influx in IMR32 cells)
Format: cell-based
Settings: for inhibition at 10 µM: IMR-32, @ 10 μM, 3 minute pre-incubation (*), read-out: percent inhibition; for IC50: 2 μM nifedipine, depolarized with 80 mM KCl
Protocol: (i) In Vitro Methods—Assessment of Calcium Channel Activity Using FLIPR:
The IMR32 cells were maintained in MEM media containing 10% (v/v) FBS, 1% (v/v) antibiotic/antimitotic, 1% (v/v) sodium pyruvate and 1% (v/v) MEM NEAA. Following dissociation in 0.05% (v/v) trypsin/EDTA, cells were seeded into black 1×96-well plates (Corning Cellbind) at a density of 1-1.2×10^5 cells/well and incubated in the maintenance media above for 48 hours at 37° C. […] To determine the IC50 values, the percent inhibition of the compound at each concentration was determined relative to the activity in the absence of inhibitor, and data was fitted using non-linear regression sigmoidal dose response curve analysis with GraphPad Prism®.

[1] = 3 minute pre-incubation with compound (*)
[2] = 60 minute pre-incubation with compound

human Cav2.2, sequence (Q00975 whole entry): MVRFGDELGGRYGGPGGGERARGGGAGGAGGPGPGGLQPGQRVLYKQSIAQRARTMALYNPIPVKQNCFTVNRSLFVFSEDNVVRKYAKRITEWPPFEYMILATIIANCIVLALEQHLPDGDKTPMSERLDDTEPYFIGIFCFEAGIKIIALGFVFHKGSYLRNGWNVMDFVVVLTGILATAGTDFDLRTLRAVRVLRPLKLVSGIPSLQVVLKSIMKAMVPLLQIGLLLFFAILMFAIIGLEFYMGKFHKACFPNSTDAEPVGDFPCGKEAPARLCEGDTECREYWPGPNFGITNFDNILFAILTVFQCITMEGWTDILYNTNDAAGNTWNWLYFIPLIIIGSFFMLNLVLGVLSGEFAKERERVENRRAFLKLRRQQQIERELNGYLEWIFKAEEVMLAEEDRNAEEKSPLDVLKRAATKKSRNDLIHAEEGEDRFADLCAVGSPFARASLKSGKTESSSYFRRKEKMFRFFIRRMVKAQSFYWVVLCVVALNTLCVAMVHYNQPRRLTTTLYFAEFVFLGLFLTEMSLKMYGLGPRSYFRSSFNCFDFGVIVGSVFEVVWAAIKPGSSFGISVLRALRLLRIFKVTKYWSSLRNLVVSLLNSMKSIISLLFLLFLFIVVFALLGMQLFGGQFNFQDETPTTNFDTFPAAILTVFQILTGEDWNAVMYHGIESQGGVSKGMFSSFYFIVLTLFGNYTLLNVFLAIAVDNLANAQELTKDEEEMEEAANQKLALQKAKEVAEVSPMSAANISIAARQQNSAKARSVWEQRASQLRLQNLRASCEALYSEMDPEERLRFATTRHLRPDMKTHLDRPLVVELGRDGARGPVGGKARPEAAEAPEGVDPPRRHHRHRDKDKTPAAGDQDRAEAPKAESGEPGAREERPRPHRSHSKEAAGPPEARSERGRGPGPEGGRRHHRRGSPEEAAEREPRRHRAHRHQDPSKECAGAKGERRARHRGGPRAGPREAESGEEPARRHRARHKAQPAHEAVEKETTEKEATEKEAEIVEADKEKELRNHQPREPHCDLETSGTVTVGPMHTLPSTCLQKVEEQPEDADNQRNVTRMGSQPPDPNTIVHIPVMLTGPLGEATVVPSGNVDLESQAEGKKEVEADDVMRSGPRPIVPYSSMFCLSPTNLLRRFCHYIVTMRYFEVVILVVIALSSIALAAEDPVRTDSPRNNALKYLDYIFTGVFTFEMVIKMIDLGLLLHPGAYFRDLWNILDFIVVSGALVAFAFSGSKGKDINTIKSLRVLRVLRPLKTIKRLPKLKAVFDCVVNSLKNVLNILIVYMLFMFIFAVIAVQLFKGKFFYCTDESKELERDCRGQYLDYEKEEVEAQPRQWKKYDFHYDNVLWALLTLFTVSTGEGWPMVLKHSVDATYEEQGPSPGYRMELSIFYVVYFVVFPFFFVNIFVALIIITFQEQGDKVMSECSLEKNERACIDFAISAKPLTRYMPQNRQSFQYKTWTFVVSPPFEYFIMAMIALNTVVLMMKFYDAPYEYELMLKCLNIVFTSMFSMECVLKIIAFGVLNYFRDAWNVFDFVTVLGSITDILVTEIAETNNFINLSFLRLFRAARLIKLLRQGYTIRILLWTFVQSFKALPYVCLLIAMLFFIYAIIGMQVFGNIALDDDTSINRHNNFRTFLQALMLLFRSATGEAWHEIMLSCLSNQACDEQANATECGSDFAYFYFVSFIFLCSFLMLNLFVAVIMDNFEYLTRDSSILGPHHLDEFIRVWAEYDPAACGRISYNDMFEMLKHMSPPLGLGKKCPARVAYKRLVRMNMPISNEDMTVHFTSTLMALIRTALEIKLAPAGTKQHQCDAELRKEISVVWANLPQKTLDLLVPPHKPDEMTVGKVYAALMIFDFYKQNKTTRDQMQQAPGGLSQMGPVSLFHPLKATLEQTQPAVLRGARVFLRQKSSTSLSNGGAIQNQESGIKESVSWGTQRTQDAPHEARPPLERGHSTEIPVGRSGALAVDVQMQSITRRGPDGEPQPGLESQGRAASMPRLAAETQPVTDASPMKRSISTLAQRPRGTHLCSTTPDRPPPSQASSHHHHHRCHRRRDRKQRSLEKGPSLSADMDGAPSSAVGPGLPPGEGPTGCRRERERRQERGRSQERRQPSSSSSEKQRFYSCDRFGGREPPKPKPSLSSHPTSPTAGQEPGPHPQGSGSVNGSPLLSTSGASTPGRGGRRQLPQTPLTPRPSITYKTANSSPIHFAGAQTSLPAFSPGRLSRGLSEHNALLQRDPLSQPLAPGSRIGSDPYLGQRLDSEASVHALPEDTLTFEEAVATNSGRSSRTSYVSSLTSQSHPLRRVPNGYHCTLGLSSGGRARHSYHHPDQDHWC
human Cav2.2, sequence (P54289 25-946 partner limits assumed): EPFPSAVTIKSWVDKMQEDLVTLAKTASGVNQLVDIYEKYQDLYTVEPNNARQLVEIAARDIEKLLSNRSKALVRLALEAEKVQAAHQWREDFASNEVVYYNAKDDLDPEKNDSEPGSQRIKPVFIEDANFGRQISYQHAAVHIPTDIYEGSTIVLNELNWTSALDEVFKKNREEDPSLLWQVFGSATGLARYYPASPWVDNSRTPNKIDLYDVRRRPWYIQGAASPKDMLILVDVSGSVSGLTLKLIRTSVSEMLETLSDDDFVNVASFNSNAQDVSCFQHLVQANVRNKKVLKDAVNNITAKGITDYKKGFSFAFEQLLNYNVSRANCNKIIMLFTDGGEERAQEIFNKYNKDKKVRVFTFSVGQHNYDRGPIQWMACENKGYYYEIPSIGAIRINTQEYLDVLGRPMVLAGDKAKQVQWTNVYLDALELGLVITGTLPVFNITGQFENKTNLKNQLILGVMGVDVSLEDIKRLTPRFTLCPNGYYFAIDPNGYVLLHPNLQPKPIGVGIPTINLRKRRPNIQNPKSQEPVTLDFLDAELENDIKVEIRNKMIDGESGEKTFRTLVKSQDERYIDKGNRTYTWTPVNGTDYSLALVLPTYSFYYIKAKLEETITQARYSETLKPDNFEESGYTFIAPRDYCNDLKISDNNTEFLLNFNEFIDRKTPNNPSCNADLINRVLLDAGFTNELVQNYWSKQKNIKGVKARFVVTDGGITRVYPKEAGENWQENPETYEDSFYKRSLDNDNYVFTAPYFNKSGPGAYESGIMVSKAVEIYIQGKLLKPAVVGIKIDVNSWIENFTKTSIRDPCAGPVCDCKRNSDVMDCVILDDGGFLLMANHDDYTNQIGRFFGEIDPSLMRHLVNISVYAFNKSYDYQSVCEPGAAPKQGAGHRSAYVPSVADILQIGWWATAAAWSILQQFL
human Cav2.2, sequence (P54289 947-1103 partner limits assumed): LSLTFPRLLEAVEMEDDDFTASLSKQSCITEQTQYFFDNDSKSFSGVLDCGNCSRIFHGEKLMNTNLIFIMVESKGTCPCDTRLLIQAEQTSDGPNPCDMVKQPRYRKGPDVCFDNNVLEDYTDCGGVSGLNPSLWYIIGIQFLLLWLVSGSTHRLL
human Cav2.2, sequence (P54284 whole entry partner): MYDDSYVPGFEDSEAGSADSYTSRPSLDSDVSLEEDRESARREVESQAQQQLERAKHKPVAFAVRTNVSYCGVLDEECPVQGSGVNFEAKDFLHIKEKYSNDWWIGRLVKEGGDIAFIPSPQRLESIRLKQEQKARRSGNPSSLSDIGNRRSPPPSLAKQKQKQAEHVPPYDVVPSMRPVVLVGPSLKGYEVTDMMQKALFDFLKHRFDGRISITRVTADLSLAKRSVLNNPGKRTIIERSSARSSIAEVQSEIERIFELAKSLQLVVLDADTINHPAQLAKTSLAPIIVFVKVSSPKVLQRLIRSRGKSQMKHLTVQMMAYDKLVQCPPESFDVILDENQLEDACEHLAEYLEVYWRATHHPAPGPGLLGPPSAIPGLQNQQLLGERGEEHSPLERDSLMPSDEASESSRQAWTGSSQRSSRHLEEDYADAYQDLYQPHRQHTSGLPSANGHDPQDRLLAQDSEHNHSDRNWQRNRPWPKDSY

Row | IC50 [1] [µM] | IC50 [2] [µM] | SMILES | also measured
1 | 2.4 | – | COc1ccc(CN2C[C@H]3CC[C@H](NC(=O)C(c4ccccc4)C(C)C)[C@H]3C2)cc1 (stereo partly drawn) [Example 96, N-[(3aR,4S,6aS)-2-(4-methoxybenzyl)octahydrocyclopenta[c]pyrrol-4-yl]-3-methyl-2-phenylbutanamide] | –
2 | 5.3 | – | CC(C)C(C(=O)N[C@H]1CC[C@@H]2CN(Cc3cccc(C#N)c3)C[C@@H]21)c1ccccc1 (stereo partly drawn) [Example 97, N-[(3aR,4S,6aS)-2-(3-cyanobenzyl)octahydrocyclopenta[c]pyrrol-4-yl]-3-methyl-2-phenylbutanamide] | –
3 | 4.9 | – | CC(C)C(C(=O)N[C@H]1CC[C@@H]2CN(Cc3ccc(C(F)(F)F)cc3)C[C@@H]21)c1ccccc1 (stereo partly drawn) [Example 98, 3-methyl-2-phenyl-N-{(3aR,4S,6aS)-2-[4-(trifluoromethyl)benzyl]octahydrocyclopenta[c]pyrrol-4-yl}butanamide] | –
4 | 4.8 | – | CC(C)C(C(=O)N[C@H]1CC[C@@H]2CN(Cc3ccccc3C(F)(F)F)C[C@@H]21)c1ccccc1 (stereo partly drawn) [Example 99, 3-methyl-2-phenyl-N-{(3aR,4S,6aS)-2-[2-(trifluoromethyl)benzyl]octahydrocyclopenta[c]pyrrol-4-yl}butanamide] | –
5 | 4.2 | – | CC(C)C(C(=O)N[C@H]1CC[C@@H]2CN(Cc3ccc(F)c(C(F)(F)F)c3)C[C@@H]21)c1ccccc1 (stereo partly drawn) [Example 100, N-{(3aR,4S,6aS)-2-[4-fluoro-3-(trifluoromethyl)benzyl]octahydrocyclopenta[c]pyrrol-4-yl}-3-methyl-2-phenylbutanamide] | –
6 | 4.7 | – | CC(C)C(C(=O)N[C@H]1CC[C@@H]2CN(Cc3ccc(C(F)(F)F)c(F)c3)C[C@@H]21)c1ccccc1 (stereo partly drawn) [Example 101, N-{(3aR,4S,6aS)-2-[3-fluoro-4-(trifluoromethyl)benzyl]octahydrocyclopenta[c]pyrrol-4-yl}-3-methyl-2-phenylbutanamide] | –
7 | 31 | – | CC(C)C(C(=O)N[C@H]1CC[C@@H]2CN(Cc3ccncc3)C[C@@H]21)c1ccccc1 (stereo partly drawn) [Example 103, 3-methyl-2-phenyl-N-[(3aR,4S,6aS)-2-(pyridin-4-ylmethyl)octahydrocyclopenta[c]pyrrol-4-yl]butanamide] | –
8 | – | 1.5 | CC(C)C(C(=O)N[C@H]1CC[C@@H]2CN(CCCc3ccccc3)C[C@@H]21)c1ccccc1 (stereo partly drawn) [Example 105, 3-methyl-2-phenyl-N-[(3aR,4S,6aS)-2-(3-phenylpropyl)octahydrocyclopenta[c]pyrrol-4-yl]butanamide] | –
9 | 9 | – | CC(C)C(C(=O)N[C@H]1CC[C@@H]2CN(CCCc3cccc(Cl)c3)C[C@@H]21)c1ccccc1 (stereo partly drawn) [Example 109, N-{(3aR,4S,6aS)-2-[3-(3-chlorophenyl)propyl]octahydrocyclopenta[c]pyrrol-4-yl}-3-methyl-2-phenylbutanamide] | –
10 | 2 | – | Cc1cccc(CCCN2C[C@H]3CC[C@H](NC(=O)C(c4ccccc4)C(C)C)[C@H]3C2)c1 (stereo partly drawn) [Example 110, 3-methyl-N-{(3aR,4S,6aS)-2-[3-(3-methylphenyl)propyl]octahydrocyclopenta[c]pyrrol-4-yl}-2-phenylbutanamide] | –
11 | 2.2 | – | CC(C)C(C(=O)N[C@H]1CC[C@@H]2CN(CCCc3cccc(C(F)(F)F)c3)C[C@@H]21)c1ccccc1 (stereo partly drawn) [Example 111, 3-methyl-2-phenyl-N-((3aR,4S,6aS)-2-{3-[3-(trifluoromethyl)phenyl]propyl}octahydrocyclopenta[c]pyrrol-4-yl)butanamide] | –
12 | 2.8 | – | CC(C)C(C(=O)N[C@H]1CC[C@@H]2CN(CCCc3cccc(F)c3)C[C@@H]21)c1ccccc1 (stereo partly drawn) [Example 112, N-{(3aR,4S,6aS)-2-[3-(3-fluorophenyl)propyl]octahydrocyclopenta[c]pyrrol-4-yl}-3-methyl-2-phenylbutanamide] | –

Continued, compound first:

Row | SMILES | IC50 [1] [µM] | IC50 [2] [µM] | also measured
13 | COc1cccc(CN2C[C@H]3CC[C@H](NC(=O)C(c4ccccc4)C(C)C)[C@H]3C2)c1 (stereo partly drawn) [Example 90, N-[(3aR,4S,6aS)-2-(3-methoxybenzyl)octahydrocyclopenta[c]pyrrol-4-yl]-3-methyl-2-phenylbutanamide] | – | – | inhibition at 10 µM: 83%
14 | CC(C)C(C(=O)N[C@H]1CC[C@@H]2CN(CCc3ccccc3)C[C@@H]21)c1ccccc1 (stereo partly drawn) [Example 104, 3-methyl-2-phenyl-N-[(3aR,4S,6aS)-2-(2-phenylethyl)octahydrocyclopenta[c]pyrrol-4-yl]butanamide] | – | – | inhibition at 10 µM: 79%
15 | CC(C)C(C(=O)N[C@H]1CC[C@@H]2CN(CCCc3ccc(C(C)(C)C)cc3)C[C@@H]21)c1ccccc1 (stereo partly drawn) [Example 106, N-{(3aR,4S,6aS)-2-[3-(4-tert-butylphenyl)propyl]octahydrocyclopenta[c]pyrrol-4-yl}-3-methyl-2-phenylbutanamide] | 5.8 | – | –
16 | Cc1ccccc1CCCN1C[C@H]2CC[C@H](NC(=O)C(c3ccccc3)C(C)C)[C@H]2C1 (stereo partly drawn) [Example 108, 3-methyl-N-{(3aR,4S,6aS)-2-[3-(2-methylphenyl)propyl]octahydrocyclopenta[c]pyrrol-4-yl}-2-phenylbutanamide] | 11.3 | – | –
17 | CC(C)C(C(=O)N[C@H]1CC[C@@H]2CN(CCCCc3ccccc3)C[C@@H]21)c1ccccc1 (stereo partly drawn) [Example 113, 3-methyl-2-phenyl-N-[(3aR,4S,6aS)-2-(4-phenylbutyl)octahydrocyclopenta[c]pyrrol-4-yl]butanamide] | 3.1 | – | –
18 | CC(C)C(C(=O)N[C@H]1CC[C@@H]2CN(CCCc3ccc(C(F)(F)F)cc3)C[C@@H]21)c1ccccc1 (stereo partly drawn) [Example 115, 3-methyl-2-phenyl-N-((3aR,4S,6aS)-2-{3-[4-(trifluoromethyl)phenyl]propyl}octahydrocyclopenta[c]pyrrol-4-yl)butanamide] | – | 1.2 | –
19 | O=C(N[C@H]1CC[C@H]2CN(Cc3cccc(C(F)(F)F)c3)C[C@H]21)C(O)(C1CCCCC1)C1CCCCC1 [Example 152, 2,2-dicyclohexyl-2-hydroxy-N-{(3aS,4S,6aR)-2-[3-(trifluoromethyl)benzyl]octahydrocyclopenta[c]pyrrol-4-yl}acetamide] | – | 0.8 | –
20 | CC(C)C[C@@H](C(=O)N[C@H]1CC[C@H]2CN(Cc3cccc(C(F)(F)F)c3)C[C@H]21)N(C)C(=O)OC(C)(C)C [Example 153, N^2-(tert-butyloxycarbonyl)-N^2-methyl-N^1-{(3aS,4S,6aR)-2-[3-(trifluoromethyl)benzyl]octahydrocyclopenta[c]pyrrol-4-yl}-L-leucinamide] | – | 0.4 | –
21 | CC(=O)N(C)[C@@H](CC(C)C)C(=O)N[C@H]1CC[C@H]2CN(Cc3cccc(C(F)(F)F)c3)C[C@H]21 [Example 175, N^2-acetyl-N^2-methyl-N^1-{(3aS,4S,6aR)-2-[3-(trifluoromethyl)benzyl]octahydrocyclopenta[c]pyrrol-4-yl}-L-leucinamide] | – | 1.5 | –
22 | O=S(=O)(N[C@@H]1CC[C@@H]2CN(Cc3cccc(C(F)(F)F)c3)C[C@@H]21)c1cccc(C(F)(F)F)c1 [Example 188, 3-(trifluoromethyl)-N-{(3aR,4R,6aS)-2-[3-(trifluoromethyl)benzyl]octahydrocyclopenta[c]pyrrol-4-yl}benzenesulfonamide] | – | 0.8 | –
23 | O=S(=O)(N[C@@H]1CC[C@H]2CN(Cc3ccccc3)C[C@H]21)c1cccc(C(F)(F)F)c1 [Example 190, N-[(3aS,4R,6aR)-2-benzyloctahydrocyclopenta[c]pyrrol-4-yl]-3-(trifluoromethyl)benzenesulfonamide] | – | 1.3 | –
24 | O=S(=O)(N[C@@H]1CC[C@H]2CN(Cc3ccc(C(F)(F)F)c(F)c3)C[C@H]21)c1cccc(C(F)(F)F)c1 [Example 194, N-{(3aS,4R,6aR)-2-[3-fluoro-4-(trifluoromethyl)benzyl]octahydrocyclopenta[c]pyrrol-4-yl}-3-(trifluoromethyl)benzenesulfonamide] | – | 1.4 | –
25 | O=C(N[C@H]1CC[C@H]2CN(S(=O)(=O)c3cccc(C(F)(F)F)c3)C[C@H]21)C(C1CCCCC1)C1CCCCC1 [Example 205, 2,2-dicyclohexyl-N-((3aS,4S,6aR)-2-{[3-(trifluoromethyl)phenyl]sulfonyl}octahydrocyclopenta[c]pyrrol-4-yl)acetamide] | – | 3.4 | –
26 | O=C(N[C@H]1CC[C@H]2CN(S(=O)(=O)CCc3ccccc3)C[C@H]21)C(C1CCCCC1)C1CCCCC1 [Example 206, 2,2-dicyclohexyl-N-{(3aS,4S,6aR)-2-[(2-phenylethyl)sulfonyl]octahydrocyclopenta[c]pyrrol-4-yl}acetamide] | – | > 100 | –
27 | O=C(N[C@H]1CC[C@H]2CN(S(=O)(=O)CCc3cccc4ccccc34)C[C@H]21)C(C1CCCCC1)C1CCCCC1 [Example 207, 2,2-dicyclohexyl-N-((3aS,4S,6aR)-2-{[2-(1-naphthyl)ethyl]sulfonyl}octahydrocyclopenta[c]pyrrol-4-yl)acetamide] | – | > 100 | –
28 | O=C(N[C@H]1CC[C@H]2CN(S(=O)(=O)Cc3cccc(C(F)(F)F)c3)C[C@H]21)C(C1CCCCC1)C1CCCCC1 [Example 208, 2,2-dicyclohexyl-N-((3aS,4S,6aR)-2-{[3-(trifluoromethyl)benzyl]sulfonyl}octahydrocyclopenta[c]pyrrol-4-yl)acetamide] | – | > 100 | –
29 | O=C(N[C@H]1CC[C@H]2CN(S(=O)(=O)CCc3ccc(F)cc3)C[C@H]21)C(C1CCCCC1)C1CCCCC1 [Example 209, 2,2-dicyclohexyl-N-((3aS,4S,6aR)-2-{[2-(4-fluorophenyl)ethyl]sulfonyl}octahydrocyclopenta[c]pyrrol-4-yl)acetamide] | – | > 100 | –
30 | CC[C@H](C(=O)N[C@@H]1CC[C@@H]2CN([C@@H](C)c3ccccc3)C[C@@H]21)c1ccccc1 [Example 210, (2S)-2-phenyl-N-{(3aR,4R,6aS)-2-[(1S)-1-phenylethyl]octahydrocyclopenta[c]pyrrol-4-yl}butanamide] | – | – | inhibition at 10 µM: 76%
